{"source": "patent EP0465091B1", "about": "“Use of 3-oxygermylpropionic acid to treat cold syndrome” (SANWA KAGAKU KENKYUSHO CO., LTD., priority 1990, dated 1992)", "key": {"[1]": {"details": "see JP-A-57-53800 and US-A-4309412; cited from earlier work"}, "rats": {"tested_on": "rats", "assay": "Antipyretic activity in dry yeast-induced fever (rectal temperature)", "assay_type": "in vivo", "details": "oral; for Changes in mean temperature, Time 1 hr: rectal temperature 1 hr from dosing; for Changes in mean temperature, Time 2 hr: rectal temperature 2 hr from dosing; for Changes in mean temperature, Time 4 hr: rectal temperature 4 hr from dosing; for Changes in mean temperature, Time 8 hr: rectal temperature 8 hr from dosing; for Changes in mean temperature, Time 0 hr: rectal temperature at 0 hr (18 hours after yeast, at dosing)", "method": "A 20 % suspension of dry yeast was subcutaneously injected into a Wister line of (masculine) rats (weights: 170-200 g) at a dose of 1 ml/100 g to bring their rectal temperatures up to higher than 39°C(39.13 0.02 ) after the lapse of 18 hours. The drugs to be tested were orally administrated to these rats, six for each group, to measure their rectal temperatures at 1, 2, 4 and 8 hours from dosing. The drugs used were: • (1) 75 mg/Kg (50 mg/Kg calculated as 3-OGP) of the primary composition according to Preparation Example; • (2) 1 mg/Kg of indomethacin (IND); • (3) 5 mg/Kg of indomethacin (IND); • (4) 75 mg/Kg (50 mg/Kg calculated as 3-OGP) of the primary composition according to Preparation Example 1 + 1 mg/Kg of indomethacin - administer at once; and • (5) No drug - control."}, "[2]": {"details": "primary composition 75mg/Kg, IND 1mg/Kg, or both"}}}
{"molecule": "3-oxygermylpropionic acid [3-OGP]", "values": [{"measurement": "stability in the presence of water", "setting": "[1]", "result": "so unstable in the presence of water that its pharmacological activity decreases drastically"}]}
{"molecule": "COc1ccc2c(c1)c(CC(=O)O)c(C)n2C(=O)c1ccc(Cl)cc1", "note": "[IND, Indomethacin]", "values": [{"measurement": "Changes in mean temperature, Time 1 hr", "setting": "rats; IND 5mg/Kg", "result": 38.35, "unit": "°C"}, {"measurement": "Changes in mean temperature, Time 1 hr", "setting": "rats; [2]", "result": 38.81, "unit": "°C"}, {"measurement": "Changes in mean temperature, Time 2 hr", "setting": "rats; IND 5mg/Kg", "result": 37.67, "unit": "°C"}, {"measurement": "Changes in mean temperature, Time 2 hr", "setting": "rats; [2]", "result": 38.65, "unit": "°C"}, {"measurement": "Changes in mean temperature, Time 4 hr", "setting": "rats; IND 5mg/Kg", "result": 37.75, "unit": "°C"}, {"measurement": "Changes in mean temperature, Time 4 hr", "setting": "rats; [2]", "result": 38.44, "unit": "°C"}, {"measurement": "Changes in mean temperature, Time 8 hr", "setting": "rats; IND 5mg/Kg", "result": 37.94, "unit": "°C"}, {"measurement": "Changes in mean temperature, Time 8 hr", "setting": "rats; [2]", "result": 38.30, "unit": "°C"}, {"measurement": "Changes in mean temperature, Time 0 hr", "setting": "rats; IND 5mg/Kg", "result": 39.13, "unit": "°C"}, {"measurement": "Changes in mean temperature, Time 0 hr", "setting": "rats; [2]", "result": 39.13, "unit": "°C"}]}
